Reference: patent EP3818977A1, “CD93 INHIBITORS FOR USE IN THE TREATMENT OF CANCER” (Universität Bern, priority 2019, dated 2021)

Experiments:
murine LSCs = assay: Colony assay of murine LSCs in methylcellulose; format: cell-based, mouse
Description: Colony assays from BM lin^- cells of CML and naive mice and CD34^+ stem/progenitor cells of human CML patients were performed as described before ([…] et al. 2015). For mouse colony assays 10^3 FACS-purified LSKs or LSCs were plated in methylcellulose and colonies were enumerated 7 days later. For serial re-plating experiments, 10^4 cells were collected from preceding colony assays and re-plated in methylcellulose. Colonies were enumerated 7 days later. For experiments using metoclopramide (Sigma), 10^3 FACS-purified murine LSCs or 2x10^3 human CD34^+ […] methylcellulose. Colony were enumerated 7 days and 14 days later, respectively. For re-plating assays 10^4or 2x10^4 cells isolated from primary mouse and human colony assays, respectively, were subsequently replated in methylcellulose in the absence of any compound. Colony were enumerated 7 days and 14 days later, respectively.

human CD34^+CD38^- LSCs = assay: Colony and re-plating assay of human CML stem/progenitor cells in semisolid culture; format: cell-based; conditions: 0.1µM, semisolid cultures, compared to control treatment
Description: Colony assays from BM lin^- cells of CML and naive mice and CD34^+ stem/progenitor cells of human CML patients were performed as described before (Riether et al. 2015).
For experiments using metoclopramide (Sigma), 10^3 FACS-purified murine LSCs or 2x10^3 human CD34^+ stem/progenitor cells were incubated overnight in 96 well V-bottom plates in the presence of 0.1 and 1µM metoclopramide or vehicle followed by plating methylcellulose. Colony were enumerated 7 days and 14 days later, respectively.
For re-plating assays 10^4or 2x10^4 cells isolated from primary mouse and human colony assays, respectively, were subsequently replated in methylcellulose in the absence of any compound. Colony were enumerated 7 days and 14 days later, respectively.

| Structure (SMILES) | colony formation of murine LSCs (murine LSCs) | colony formation (human CD34^+CD38^- LSCs) | re-plating capacity (human CD34^+CD38^- LSCs; re-plating in the absence of compound) | clonogenic potential of CD93-competent LSCs (murine LSCs; in vitro, BL/6 LSCs cultured overnight with 1mM metoclopramide (Fig. 6H), colonies assessed 7 days later) | colony formation of CD93-deficient LSCs (murine LSCs; in vitro, Cd93^-/- LSCs cultured overnight with 1mM metoclopramide (Fig. 6H), colonies assessed 7 days later) |
| --- | --- | --- | --- | --- | --- |
| CC(CN1c2ccccc2Sc2ccccc21)N(C)C (stereo not drawn) [promethazine, Promethazine] | effective in reducing colony formation of murine LSCs |  |  |  |  |
| CCN(CC)CCNC(=O)c1cc(Cl)c(N)cc1OC [metoclopramide, Metoclopramide] | effective in reducing colony formation of murine LSCs | significantly impaired | significantly impaired | reduced clonogenic potential of CD93-competent LSCs to comparable levels as CD93-deficient LSCs | without further affecting colony formation of CD93-deficient LSCs |
